The subject of one test is NCI-H292 cells. As to the kind of experiment: Cell viability assay (CellTiter-Glo), NCI-H292. The class given is cell-based. Particulars: Homo sapiens, 72 hrs, read-out: Cell Viability Assay: IC50 Determination NCI-H292. Here is the method:
(§1) Cell culture: HCTI 16, HT-29, and NCI-H292 cells were acquired from American Type Culture Collection (ATCC). HCT116 and HT-29 cells were maintained in ATCC-formulated McCoy's 5a Medium Modified supplemented with 10% fetal bovine serum, NCI-H292 cells were cultured in ATCC formulated RPMI-1640 supplemented with 10% fetal bovine serum. All cells were maintained at 37° C., 5% CO2.
Efficacy of exemplary compounds in inhibition of cell viability: HCT116 and HT-29 cells were plated at 4,000 cells per well and NCI-H292 cells were plated at 2,000 cells per well in their respective media in 384-well white, TC-treated plates (Corning). After 24 hours of incubation, the cells were treated with vehicle (DMSO) or test compounds (0.1% DMSO in final volume) for 72 hrs. The plate was equilibrated at room temperature for 10 mins followed by addition of a 1:1 volume of CellTiter-Glo® reagent (Promega). The contents were mixed for 2 mins on an orbital shaker to induce lysis. The plate was incubated at room temperature for 10 mins to stabilize luminescent signal before measuring luminescence on a Cytation5 microplate reader (Agilent). % inhibition as a function of compound concentration from 3 replicate wells was fit with a 4-parameter logistic curve using GraphPad Prism or CDD Vault to derive IC50 values.
(§2) In this table, for the BRAF ADP Glo kinase assay, “A” indicates IC50 of less than 5 nM; “B” indicates IC50 of between 5 nM to 50 nM; and “C” indicates IC50 of between 50 nM to 500 nM. “D” indicates IC50 of greater than 500 nM. For the BRAF-MEK TR-FRET assay, “A” indicates EC50 of less than 50 nM; “B” indicates EC50 of between 50 nM to 200 nM; and “C” indicates EC50 of between 200 nM to 1 μM. “D′” indicates EC50 of greater than 1 μM. For the AlphaLisa P-ERK assay, “A” indicates IC50 of less than 1 nM; “B” indicates IC50 of between 1 nM to 10 nM; and “C” indicates IC50 of between 10 nM to 100 nM. “D” indicates IC50 of greater than 100 nM. For the cell viability assay, “A” indicates IC50 of less than 1 nM; “B” indicates IC50 of between 1 nM to 10 nM; and “C” indicates IC50 of between 10 nM to 100 nM. “D” indicates IC50 of greater than 100 nM.
(In general: In ATP-based viability assays light output follows the ATP content of the culture.)

The next test concerns BRAF-MEK1. Put plainly: BRAF-MEK TR-FRET assay, stabilization of MEK1 and BRAF interaction. The class given is binding. The settings on record: 4 nM BRAF, 10 nM MEK, 100 μM ATP; 1 hr at 25° C.; read-out: BRAF-MEK TR-FRET Assay (EC50, fold stabilization). An outline of the steps:
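His-MEK1 (full-length, E. coli) at 10 nM with GST-BRAF at 4 nM, 1 h at 25° C in pH 7.5 Tris buffer with 5 mM MgCl2 and 100 μM ATP; anti-His-Tb/anti-GST-XL665 added for 1 h more. 665/620 FRET ratio over DMSO gives fold stabilization; EC50 from 4-parameter fit, duplicate wells.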
Background: TR-FRET usually uses a lanthanide donor and a delayed reading to cut background.

The next test has as its system p-ERK1/2 in HCT116 cells. Put plainly: AlphaLISA p-ERK assay, cellular inhibition of ERK phosphorylation in HCT116 cells. The class given is cell-based. The settings on record: Homo sapiens, HCT-116, 2 hours treatment, PMA stimulation 30 mins. How it is done: as §1
Efficacy of exemplary compounds in cellular inhibition of ERK phosphorylation: Phosphorylation status of ERK1/2 (p-ERK) was used as a readout for inhibition of BRAF-MEK pathway. p-ERK was detected using an immunoassay for quantitative detection of phospho-ERK 1/2 (phosphorylated on Thr202/Tyr204 in ERK1, or Thr185/Tyr187 in ERK2), such as the AlphaLISA® SureFire® Ultra™ p-ERK1/2 (Thr202/Tyr204) kit (Perkin Elmer). HCT116 cells were plated at 10,000 cells per well in 384-well TC-treated plates (Coming). Cells were plated for 24 hours, the medium was then aspirated and cells were treated with vehicle (DMSO) or test compounds (0.1% DMSO in final volume) prepared in serum free, phenol red free medium for 2 hours. Following treatment, cells were stimulated with PMA (1.25 μM/well) for 30 mins after which the medium was aspirated, and the cells were lysed for 10 mins with 1× lysis buffer supplemented with Halt Protease and Phosphatase Inhibitor Cocktail (Thermo Fisher). The lysate was transferred to a 384 well Alpha-plate (PerkinElmer) and incubated for 1 hour with acceptor bead mix followed by 1 hour incubation with donor bead mix. After incubation, the plate was read on a Cytation5 microplate reader (Agilent). % inhibition as a function of compound concentration from 3 replicate wells was fit with a 4-parameter logistic curve using GraphPad Prism or CDD Vault to derive IC50 values.
as §2
(In Alpha technology, singlet oxygen from a donor bead excites a nearby acceptor bead.)

The next test deals with T1, MEK1 (Homo sapiens, UniProt Q02750).
T1 construct: purchased SignalChem M02-14H
T1 sequence (Q02750 whole entry): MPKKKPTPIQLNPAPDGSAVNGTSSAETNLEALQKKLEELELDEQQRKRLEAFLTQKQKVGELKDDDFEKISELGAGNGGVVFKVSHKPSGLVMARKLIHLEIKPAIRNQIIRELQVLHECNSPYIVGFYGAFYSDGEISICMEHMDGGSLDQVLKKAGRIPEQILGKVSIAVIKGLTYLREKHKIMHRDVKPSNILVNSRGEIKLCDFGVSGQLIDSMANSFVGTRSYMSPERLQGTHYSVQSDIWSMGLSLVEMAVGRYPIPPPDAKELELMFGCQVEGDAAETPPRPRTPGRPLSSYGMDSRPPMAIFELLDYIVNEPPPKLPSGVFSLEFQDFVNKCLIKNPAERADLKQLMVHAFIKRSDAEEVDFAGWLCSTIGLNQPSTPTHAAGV
T1 sequence (P15056 445-723 partner limits assumed): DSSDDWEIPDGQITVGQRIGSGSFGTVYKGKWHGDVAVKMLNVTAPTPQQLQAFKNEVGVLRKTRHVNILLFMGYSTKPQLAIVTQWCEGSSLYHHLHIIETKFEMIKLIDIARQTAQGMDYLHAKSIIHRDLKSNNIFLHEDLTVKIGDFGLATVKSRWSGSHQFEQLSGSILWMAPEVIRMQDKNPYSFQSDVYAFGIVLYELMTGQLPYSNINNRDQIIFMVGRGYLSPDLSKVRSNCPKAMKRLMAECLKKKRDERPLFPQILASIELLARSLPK
As to the kind of experiment: MEK1 kinase cascade assay (ADP-Glo), inhibition of MEK1 kinase activity. It counts as biochemical. The settings on record: 25 nM BRAF, 6.25 nM MEK1, 0.5 μM ERK, 1 mM ATP; 20 min preincubation, 1 hr at 25° C.; read-out: BRAF ADP Glo kinase assay V3 (IC50). In short, it runs like this:
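Compounds were preincubated 20 mins at 25° C with 25 nM BRAF(445-723) in 10 mM HEPES pH 7.5, 5 mM MgCl2, 2 mM CHAPS, 1 mM DTT, then 6.25 nM MEK1, 0.5 μM ERK1 and 1 mM ATP were added for 1 hr at 25° C, with 1% DMSO. ADP-Glo luminescence was normalized to DMSO and 1 μM Trametinib; IC50 came from 4-parameter fits of duplicates.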

The structures appear in SMILES notation.

What is called IC50 is the concentration at which inhibition is half-maximal. `CNS(=O)(=O)Nc1cccc(CN2C(=O)Oc3cc(Oc4cccnn4)c(F)cc3[C@H]2C)c1F` (single isomer, unassigned) [Compound 67]: the figures for the IC50 with NCI-H292 cells, in the test with p-ERK1/2 in HCT116 cells and on MEK1 were 1 to 10 nM, 1 to 10 nM and 5 to 50 nM, respectively. For the same molecule, the EC50 with BRAF-MEK1 was 200 to 1000 nM.

On to `CNS(=O)(=O)Nc1cccc(CN2C(=O)Oc3cc(Oc4cccnn4)c(F)cc3[C@@H]2C)c1F` (single isomer, unassigned) [Compound 66], for which the IC50 in the test with NCI-H292 cells was 1 to 10 nM; in the test on p-ERK1/2 in HCT116 cells, 1 to 10 nM; on MEK1, < 5 nM. Also, the EC50 in the test on BRAF-MEK1 fell in the range of 200 to 1000 nM.

Take `CNS(=O)(=O)Nc1cccc(CN2C(=O)Oc3cc(Oc4cccnn4)ccc3C23COC3)c1F` [Compound 81, 3-({2-fluoro-3-[(methylsulfamoyl)amino]phenyl}methyl)-7-(pyridazin-3-yloxy)-2,3-dihydrospiro[1,3-benzoxazine-4,3′-oxetan]-2-one]: the IC50 in the test with NCI-H292 cells is 1 to 10 nM; in the test on p-ERK1/2 in HCT116 cells, 1 to 10 nM; on MEK1, < 5 nM. Besides, the EC50 with BRAF-MEK1 lay within 50 to 200 nM.

In the case of `CNS(=O)(=O)Nc1cccc(CN2Cc3ccc(OC(=O)N(C)C)c(F)c3OC2=O)c1F` [Compound 131, 8-fluoro-3-(2-fluoro-3-((N-methylsulfamoyl)amino)benzyl)-2-oxo-3,4-dihydro-2H-benzo[e][1,3]oxazin-7-yl dimethylcarbamate], the IC50 in the test with NCI-H292 cells was 1 to 10 nM; in the test on p-ERK1/2 in HCT116 cells, 1 to 10 nM; on MEK1 it was < 5 nM. In addition, in the test with BRAF-MEK1, the EC50 lay within 50 to 200 nM.

With `CNS(=O)(=O)Nc1nccc(CN2C(=O)Oc3cc(Oc4cccnn4)ccc3C23CCC3)c1F` [Compound 20, 3-{[3-fluoro-2-(methylaminosulfonylamino)-4-pyridyl]methyl}-7-(3-pyridazinyloxy)-2H,3H-spiro[1,3-benzoxazine-4,1′-cyclobutan]-2-one], the EC50 in the test on BRAF-MEK1 was < 50 nM. The results for the IC50 with p-ERK1/2 in HCT116 cells and on MEK1 were 1 to 10 nM and < 5 nM, respectively.

For the molecule `CNS(=O)(=O)Nc1nccc(CN2C(=O)Oc3cc(Oc4cccnn4)ccc3[C@@H]2C)c1F` (single isomer, unassigned) [Compound 22], the EC50 in the test on BRAF-MEK1 lay in the range of 50 to 200 nM. The IC50 with p-ERK1/2 in HCT116 cells was 10 to 100 nM; at MEK1 it was 5 to 50 nM.

`CNS(=O)(=O)Nc1cccc(CN2Cc3cc(Cl)c(Oc4ncccn4)cc3OC2=O)c1F` [Compound 148, 6-chloro-3-({2-fluoro-3-[(methylsulfamoyl)amino]phenyl}methyl)-7-(pyrimidin-2-yloxy)-3,4-dihydro-2H-1,3-benzoxazin-2-one]: the IC50 in the test on NCI-H292 cells lay in the range of 10 to 100 nM; with p-ERK1/2 in HCT116 cells, 10 to 100 nM; on MEK1 it was 5 to 50 nM.

As for `CNS(=O)(=O)Nc1cccc(CN2C(=O)Oc3cc(Oc4cccnn4)c(F)cc3C23CCC3)c1F` [Compound 19, 6-fluoro-3-{1[2-fluoro-3-(methylaminosulfonylamino)phenyl]methyl}-7-(3-pyridazinyloxy)-2H,3H-spiro[1,3-benzoxazine-4,1′-cyclobutan]-2-one], the EC50 in the test on BRAF-MEK1 was < 50 nM. Besides, the figures for the IC50 with p-ERK1/2 in HCT116 cells and on MEK1 were < 1 nM and 5 to 50 nM, respectively.

For `CNS(=O)(=O)Nc1cccc(CN2Cc3ccc(Oc4ccccn4)cc3OC2=O)c1F` [Compound 65, 3-({2-fluoro-3-[(methylsulfamoyl)amino]phenyl}methyl)-7-(pyridin-2-yloxy)-3,4-dihydro-2H-1,3-benzoxazin-2-one], the values for the IC50 in the test on NCI-H292 cells, in the test on p-ERK1/2 in HCT116 cells and at MEK1 were 10 to 100 nM, 10 to 100 nM and < 5 nM, respectively.

Regarding `CNS(=O)(=O)Nc1nccc(CN2Cc3ccc(Oc4ncco4)cc3OC2=O)c1F` [Compound 162, 3-{[3-fluoro-2-(methylaminosulfonylamino)-4-pyridyl]methyl}-7-(1,3-oxazol-2-yloxy)-3,4-dihydro-2H-1,3-benzoxazin-2-one], the IC50 in the test on NCI-H292 cells lay within 1 to 10 nM; in the test with p-ERK1/2 in HCT116 cells, 10 to 100 nM. In the test with BRAF-MEK1, the EC50 lay within 50 to 200 nM.

Turning to `O=C1Oc2cc(Oc3cccnn3)ccc2C2(COC2)N1Cc1cccc(NS(=O)(=O)C2CC2)c1F` [Compound 59, N-(2-fluoro-3-{[2-oxo-7-(pyridazin-3-yloxy)-2,3-dihydrospiro[1,3-benzoxazine-4,3′-oxetan]-3-yl]methyl}phenyl)cyclopropanesulfonamide], the IC50 with NCI-H292 cells was 1 to 10 nM; in the test with p-ERK1/2 in HCT116 cells it was 1 to 10 nM; at MEK1, 5 to 50 nM.

In the case of `O=C1Oc2cc(Oc3nccnn3)ccc2C2(CCC2)N1Cc1ccnc(NS(=O)(=O)C2CC2)c1F` [Compound 161, (cyclopropylsulfonyl)[3-fluoro-4-({2-oxo-7-(1,2,4-triazin-3-yloxy)-2H,3H-spiro[1,3-benzoxazine-4,1′-cyclobutan]-3-yl}methyl)-2-pyridyl]amine], the IC50 in the test on NCI-H292 cells was 1 to 10 nM; with p-ERK1/2 in HCT116 cells, 10 to 100 nM. In addition, the EC50 in the test with BRAF-MEK1 fell in the range of 50 to 200 nM.

Take `O=C1Oc2cc(Oc3ccccn3)ccc2CN1Cc1cccc(NS(=O)(=O)C2CC2)c1F` [Compound 62, N-(2-fluoro-3-((2-oxo-7-(pyridin-2-yloxy)-2H-benzo[e][1,3]oxazin-3(4H)-yl)methyl)phenyl)cyclopropanesulfonamide]: the IC50 with NCI-H292 cells is > 100 nM; with p-ERK1/2 in HCT116 cells, > 100 nM; at MEK1 it was 5 to 50 nM.

With `CNS(=O)(=O)Nc1nccc(CN2C(=O)Oc3cc(Oc4cccnn4)c(F)cc3C23COC3)c1F` [Compound 18, 6-fluoro-3-{[3-fluoro-2-(methylaminosulfonylamino)-4-pyridyl]methyl}-7-(3-pyridazinyloxy)-2H,3H-spiro[1,3-benzoxazine-4,3′-oxetan]-2-one], in the test with BRAF-MEK1, the EC50 was < 50 nM. The IC50 is 10 to 100 nM in the test on p-ERK1/2 in HCT116 cells and 5 to 50 nM on MEK1.

As to `CNS(=O)(=O)Nc1cccc(CN2Cc3ccc(C(F)(F)C(=O)N(C)C)cc3OC2=O)c1F` [Compound 133], the IC50 in the test on NCI-H292 cells was 10 to 100 nM; with p-ERK1/2 in HCT116 cells, 10 to 100 nM; at MEK1, 5 to 50 nM.

On to `CN(C)C(=O)Oc1ccc2c(c1)OC(=O)N(Cc1cccc(CN3CCOC3=O)c1F)C2` [Compound 21, 3-(2-fluoro-3-((2-oxooxazolidin-3-yl)methyl)benzyl)-2-oxo-3,4-dihydro-2H-benzo[e][1,3]oxazin-7-yl dimethylcarbamate], for which the EC50 with BRAF-MEK1 fell in the range of 200 to 1000 nM. Moreover, the IC50 in the test with p-ERK1/2 in HCT116 cells lay within 1 to 10 nM; at MEK1 it was 5 to 50 nM.

These data come from patent US20260297105A1, “RAF-MEK PROTEIN COMPLEX MODULATORS AND METHODS OF USE THEREOF” (GANDEEVA THERAPEUTICS, INC., priority 2023, published 2026).
